The source of these data is patent US7569337B2, “Coumarines useful as biomarkers” (Novartis AG, priority 2002, dated 2009).

As to `O=c1oc2cc3c(cc2cc1-c1cn2cc(Cl)ccc2n1)CCCN3CCF` [Example 2, 3-(6-Chloro-imidazo[1,2-a]pyridin-2-yl)-8-(2-fluoro-ethyl)-5,6,7,8-tetrahydro-1-oxa-8-aza-anthracen-2-one], the melting point (usually the temperature of the solid-liquid transition) was 290 °C (dec.).
